{"source": "patent US9463210B1", "about": "“Method for alleviating cravings and discomfort associated with smoking cessation8” (priority 2015, dated 2016)", "key": {"[1]": {"system": "tyrosine hydroxylase (TH) mRNA in PC12 cells", "conditions": "cited from earlier work"}, "[2]": {"system": "Dopamine beta-hydroxylase (DBH) mRNA in PC12 cells", "conditions": "cited from earlier work"}, "[3]": {"conditions": "cited from earlier work"}, "[4]": {"molecular_target": "acetylcholinesterase (AChE) (Homo sapiens, UniProt P22303)", "sequence (P22303 32-614, species assumed)": "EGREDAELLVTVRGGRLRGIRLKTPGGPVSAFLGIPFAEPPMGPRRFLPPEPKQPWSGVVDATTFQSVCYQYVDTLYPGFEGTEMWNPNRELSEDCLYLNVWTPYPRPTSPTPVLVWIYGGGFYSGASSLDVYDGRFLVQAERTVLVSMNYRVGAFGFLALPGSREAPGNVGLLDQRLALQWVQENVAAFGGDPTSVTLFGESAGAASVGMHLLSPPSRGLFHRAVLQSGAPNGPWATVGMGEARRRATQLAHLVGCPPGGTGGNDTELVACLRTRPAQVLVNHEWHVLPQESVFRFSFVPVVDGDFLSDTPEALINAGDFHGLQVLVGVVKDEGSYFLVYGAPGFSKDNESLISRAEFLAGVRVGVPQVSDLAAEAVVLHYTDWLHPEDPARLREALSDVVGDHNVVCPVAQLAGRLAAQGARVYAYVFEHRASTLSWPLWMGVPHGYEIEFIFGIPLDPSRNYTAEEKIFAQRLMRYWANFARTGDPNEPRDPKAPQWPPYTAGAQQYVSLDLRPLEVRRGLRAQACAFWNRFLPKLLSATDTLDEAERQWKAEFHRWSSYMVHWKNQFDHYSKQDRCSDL", "conditions": "colorimetric method; cited from earlier work"}, "[5]": {"system": "Kuming mice", "conditions": "acute toxicity study; cited from earlier work"}, "[6]": {"system": "mouse microglial cell line MG6", "conditions": "cited from earlier work"}, "[7]": {"system": "NF-κB pathway", "conditions": "cited from earlier work"}, "[8]": {"system": "mice ear edema", "conditions": "cited from earlier work"}, "[9]": {"system": "NO production", "conditions": "cited from earlier work"}, "[10]": {"conditions": "oral intakes up to 4.6 grams per day; cited from earlier work"}, "[11]": {"assay": "Human equivalent dose estimate of the forskolin LD50 (Reagan-Shaw)"}, "[12]": {"system": "Rat", "conditions": "in vivo; cited from earlier work"}, "[13]": {"system": "Rat", "conditions": "cited from earlier work"}, "[14]": {"system": "isolated rat lungs", "conditions": "dose-dependent; cited from earlier work"}, "[15]": {"system": "diabetic and at-risk-of-diabetes patients", "conditions": "1.5 to 3 g daily for several years; cited from earlier work"}, "[16]": {"system": "mouse", "conditions": "cited from earlier work"}, "[17]": {"system": "mouse endothelial cells", "conditions": "cited from earlier work"}, "[18]": {"conditions": "cited from earlier work; for half-life: oral"}}, "note": "Like-named read-outs stand apart in the source and are kept apart here."}
{"molecule": "CN1CCCC1c1cccnc1", "note": "(centres unmarked) [Nicotine]", "values": [{"measurement": "increase of TH mRNA levels", "setting": "[1]", "result": 3.3, "unit": "fold"}, {"measurement": "increase of DBH mRNA levels", "setting": "[2]", "result": 3.1, "unit": "fold"}]}
{"molecule": "CNCC(=O)O", "note": "[sarcosine, N-methylglycine]", "values": [{"measurement": "safety", "setting": "[3]; 2 and 4 gm/d for one week", "result": "appears to be safe"}, {"measurement": "time to peak concentration in serum", "setting": "[3]; human, 2 and 4 gm/d", "result": "two"}]}
{"molecule": "CC1=CC[C@@H]2C[C@H]1C2(C)C", "note": "[(+)-alpha-pinene]", "values": [{"measurement": "Inhibition of AChE", "setting": "[4]", "result": "potent inhibitors"}]}
{"molecule": "CC(C)c1cc2c(c(O)c1O)[C@@]1(C(=O)O)CCCC(C)(C)[C@@H]1CC2", "note": "[carnosic acid]", "values": [{"measurement": "oral lethal dose (LD50)", "setting": "[5]", "result": "7100 mg/kg of body weight"}, {"measurement": "NO production", "setting": "[6]; associated with decrease in inducible NO synthase", "result": "inhibited"}, {"measurement": "cell survival", "setting": "[6]; at the concentrations used", "result": "Neither CA nor LPS affected cell survival"}, {"measurement": "LPS-induced activation of MG6 cells", "setting": "[6]; in vitro", "result": "inhibited"}]}
{"molecule": "CC1=CC[C@H]2C[C@@H]1C2(C)C", "note": "[(−)-alpha-pinene]", "values": [{"measurement": "Inhibition of AChE", "setting": "[4]", "result": "potent inhibitors"}]}
{"molecule": "CC(C)=CCCC(C)=CC=O", "note": "[citral]", "values": [{"measurement": "activity on COX-2", "setting": "[7]", "result": "could not efficiently suppress"}, {"measurement": "expression of IKK, iNOS, and nuclear NF-κB", "setting": "[7]; dose-dependent", "result": "decreased"}, {"measurement": "inflammation reduction, ear edema", "setting": "[8]; 0.1 mg per ear", "result": 22, "unit": "%"}, {"measurement": "inflammation reduction, ear edema", "setting": "[8]; 0.3 mg per ear", "result": 83, "unit": "%"}, {"measurement": "NO production inhibitory activity, IC50", "setting": "[9]", "result": 13.18, "unit": "µg/mL"}]}
{"molecule": "phosphatidylcholine [PC]", "values": [{"measurement": "tolerability", "setting": "[10]", "result": "very well tolerated"}]}
{"molecule": "C=C[C@@]1(C)CC(=O)[C@]2(O)[C@@]3(C)[C@@H](O)CCC(C)(C)[C@@H]3[C@H](O)[C@H](OC(C)=O)[C@@]2(C)O1", "note": "[forskolin]", "values": [{"measurement": "estimated LD50 in a person", "setting": "[11]; 100 pound (45.4 Kg) person", "result": "18,773.51 mg"}, {"measurement": "LD50", "setting": "[11]; rat, oral, 2550×(6/37), Reagan-Shaw, read-out: HED of the rat LD50", "result": 413, "unit": "mg/kg"}, {"measurement": "oral LD50 (rat)", "setting": "[12]", "result": "2,550 mg/kg"}]}
{"molecule": "CC1=CCC2C(C1)C2(C)C", "note": "(single isomer, unassigned; (+)) [(+)-3-carene]", "values": [{"measurement": "Inhibition of AChE", "setting": "[4]", "result": "potent inhibitors"}]}
{"molecule": "NC(=O)c1cccnc1", "note": "[niacinamide, nicotinamide]", "values": [{"measurement": "LD50", "setting": "[13]", "result": 3500, "unit": "mg/kg"}, {"measurement": "PMA-induced pathophysiological and biochemical changes (acute lung injury)", "setting": "[14]", "result": "diminished"}, {"measurement": "effect on biochemical parameters including liver and kidney function tests", "setting": "[15]", "result": "no effect"}, {"measurement": "LD50", "setting": "[16]", "result": 2500, "unit": "mg/kg"}, {"measurement": "SEB-induced endothelial NO production", "setting": "[17]; IFN-primed endothelial cells", "result": "significantly reduced"}, {"measurement": "IFN-gamma induction of endothelial class II MHC surface antigen", "setting": "[17]", "result": "markedly reduced"}, {"measurement": "iNOS mRNA levels", "setting": "[17]", "result": "reduced"}, {"measurement": "half-life cautiously assumed for humans", "setting": "[18]; agreement of both studies", "result": 4, "unit": "h"}, {"measurement": "effect on blood pressure, pulse or body temperature", "setting": "[18]; human, oral doses of 1-6 g", "result": "no detectable effect"}, {"measurement": "half-life", "setting": "[18]; human, 1-g dose", "result": "~1.5", "unit": "h"}, {"measurement": "half-life", "setting": "[18]; human, 2 g", "result": "~4", "unit": "h"}, {"measurement": "half-life", "setting": "[18]; human, 4 and 6 g", "result": "7 to 9", "unit": "h"}]}
{"molecule": "interleukin-10: interleukin-10 (protein, UniProt P22301 19-178, looked up) Interleukin-10: SPGQGTQSENSCTHFPGNLPNMLRDLRDAFSRVKTFFQMKDQLDNLLLKESLLEDFKGYLGCQALSEMIQFYLEEVMPQAENQDPDIKAHVNSLGENLKTLRLRLRRCHRFLPCENKSKAVEQVKNAFNKLQEKGIYKAMSEFDIFINYIEAYMTMKIRN", "values": [{"measurement": "IFN-gamma induction of endothelial class II MHC surface antigen", "setting": "[17]", "result": "no effect"}, {"measurement": "SEB-induced endothelial NO production", "setting": "[17]", "result": "significantly reduced"}, {"measurement": "iNOS mRNA levels", "setting": "[17]", "result": "did not consistently reduce"}]}
